In patent US20240374535A1, “COMPOSITIONS AND METHODS FOR TREATING BIOFILM DISORDERS AND INFECTIONS” (AHV International B.V., priority 2021, published 2024):

How the values were obtained:
[1] = system: Pseudomonas aeruginosa ATCC 27853; assay: MIC assay (planktonic growth inhibition, OD600); format: cell-based, P. aeruginosa; conditions: 24 h at 37° C.
Method in brief: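 Broth microdilution in MHB-II, two-fold series from 8 mM stock solution (Tween 80/DMSO co-diluted, 2.5% in top well). Inoculum from overnight TSA colonies adjusted to OD600 0.0008 (~10^6 CFU/mL); 24 h at 37° C., growth read as OD600; three independent experiments.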

[2] = system: cows with a SCC of more as 250.000 cells/ml; assay: In vivo mastitis test: somatic cell count (SCC) in milk after a single oral tablet; parameters: species or system cow; conditions: single oral tablet (10 g), 60 days, FIG. 1
Description: Experiments were performed to examine the effect of compounds on the cell count or somatic cell count (SCC) in milk.
Somatic cell counts (SCC) is related to the amount of pathogens that are in the quarter visible for the immune system. The cell count of each cow was measured with the milk production registration (MPR). This MPR is done periodically every 30-40 days at all farms. The Somatic Cell Count (SCC) is a main indicator of milk quality. The majority of somatic cells are leukocytes (white blood cells)—which become present in increasing numbers in milk usually as an immune response to a mastitis-causing pathogen—and a small number of epithelial cells, which are milk-producing cells shed from inside of the udder when an infection occurs.
The SCC data was extracted from milk production registrations (MPRs). MPRs are databases showing all details (e.g. SCC) of the produced milk per individual cow. MPRs of the selected farms were available periodically. SCC is quantified as the number of cells per ml of milk. In general terms: an individual cow with a value for SCC of 100,000 or less indicates an ‘uninfected’ cow and there were no significant production losses due to subclinical mastitis. A threshold SCC above 250,000 indicates infection and counts between 100,000 to 250,000 indicate a high risk of infection.
The experiments were performed on a farm with 90 cows. Examination was performed on cell count with the above described tablets during 60 days.
Cows with a SCC of more as 250.000 cells/ml before treatment were selected for administration of a single tablet.

[3] = system: udder cleft wound; assay: In vivo udder cleft dermatitis test: wound assessment after spray treatment; parameters: species or system cow; conditions: for inflammation of the udder cleft wound after treatment: immediately after the treatment, later infection reduced and wound healed; for Conclusion (effect on udder cleft wound): over 60 days, all cows of the group

SMILES	P. aeruginosa MIC50 ([1]; minimal concentration reducing final OD600 by 50%)	P. aeruginosa MIC90 ([1]; minimal concentration reducing final OD600 by 90%)	somatic cell count (SCC) of milk [2]	inflammation of the udder cleft wound after treatment [3]	Conclusion (effect on udder cleft wound) [3]	IC50 ([1]; Pseudomonas aeruginosa, ATCC27853, minimal concentration reducing final OD600 by 50%, read-out: P. aeruginosa MIC50)	IC90 ([1]; Pseudomonas aeruginosa, ATCC27853, minimal concentration reducing final OD600 by 90%, read-out: P. aeruginosa MIC90)
CSS(C)(=O)=O [Di-methyl thiosulfonate, methyl methane thiosulfonate]	250 µM	500 µM	significantly decreased	fast inflammation reduction	Positive effect		
CCCS[S+]([O-])CCC (stereo not shown) [Di-n-propyl thiosulfinate, S-propyl propane-1-sulfinothioate]			significantly decreased	fast inflammation reduction	Positive effect	1000 µM	2000 µM
